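Where inhibition never reached the appropriate level, the endpoint shown equals the highest concentration tested. Otherwise, values were interpolated linearly from a five-concentration, 48-hour dose response in 96-well plates. Abbreviation: GI50, concentration required for 50% inhibition of growth. At the TGI there is no net growth.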 Where a SMILES comes first, the peptide text is derived from it. [ ]: non-standard residue; d: D form. The star is where a group is joined. ξ: configuration not given here. ξF = NC(Cc1ccccc1)C(=O)O; Cbz = O=C(OCc1ccccc1)*; Aib = CC(C)(N)C(=O)O
Key:
Assay in all cases: NCI-60 cell line screen, 48 h
A549 NSCLC = system: A549 NSCLC
ACHN renal = system: ACHN renal
HCT-116 colon = system: HCT-116 colon
HL-60(TB) leukemia = system: HL-60(TB) leukemia
HT29 colon = system: HT29 colon
MDA-N = system: MDA-N
SF-295 CNS = system: SF-295 CNS
SNB-19 CNS = system: SNB-19 CNS
SW-620 colon = system: SW-620 colon
T-47D breast = system: T-47D breast
SR leukemia = system: SR leukemia
DMS 273 small cell lung = system: DMS 273 small cell lung

SMILES | TGI (A549 NSCLC) | TGI (ACHN renal) | TGI (HCT-116 colon) | TGI (HL-60(TB) leukemia) | TGI (HT29 colon) | TGI (MDA-N) | TGI (SF-295 CNS) | TGI (SNB-19 CNS) | TGI (SW-620 colon) | TGI (T-47D breast) | TGI (SR leukemia) | TGI (DMS 273 small cell lung) | GI50 (A549 NSCLC) | GI50 (ACHN renal) | GI50 (DMS 273 small cell lung) | GI50 (HCT-116 colon) | GI50 (HT29 colon) | GI50 (SNB-19 CNS) | GI50 (SR leukemia) | GI50 (SW-620 colon)
CC(=O)ON1C(=O)c2cccc3cccc(c23)C1=O | > 100 µM | > 100 µM | 41.7 µM | 45.5 µM | > 100 µM | 93.3 µM | > 100 µM | > 100 µM | > 100 µM | 63.8 µM | – | – | – | – | – | – | – | – | – | –
CCOC(=O)CCC(NC(=O)OCc1ccccc1)C(=O)NC(CCC(=O)OCC)C(=O)NNC(=O)OC(C)(C)C (stereo not drawn) | – | – | > 100 µM | > 100 µM | – | > 100 µM | > 100 µM | > 100 µM | – | > 100 µM | > 100 µM | – | – | – | – | – | – | – | – | –
c1cncc(O[Si](Oc2cccnc2)(Oc2cccnc2)Oc2cccnc2)c1 | > 100 µM | – | – | – | > 100 µM | – | > 100 µM | > 100 µM | > 100 µM | – | > 100 µM | > 100 µM | – | – | – | – | – | – | – | –
Nc1c(-c2ccccc2[N+](=O)[O-])nc2ccccn12 | – | > 100 µM | > 100 µM | > 100 µM | > 100 µM | – | > 100 µM | – | > 100 µM | – | > 100 µM | > 100 µM | – | – | – | – | – | – | – | –
C[CH2][Ge]([CH2]C)([CH2]C)[O]C(=O)CCC(=O)[O][Ge]([CH2]C)([CH2]C)[CH2]C | > 100 µM | > 100 µM | > 100 µM | – | > 100 µM | – | – | > 100 µM | > 100 µM | – | > 100 µM | > 100 µM | 68.5 µM | > 100 µM | 85.9 µM | 57.3 µM | 40.2 µM | > 100 µM | 40.3 µM | > 100 µM
COC(=O)C(C)(C)NC(=O)C(Cc1ccccc1)NC(=O)C(C)(C)NC(=O)OCc1ccccc1 (stereo not drawn) (Cbz-[Aib]-[ξF]-[Aib]-OMe) | > 100 µM | > 100 µM | > 100 µM | > 100 µM | > 100 µM | > 100 µM | > 100 µM | > 100 µM | > 100 µM | > 100 µM | – | – | – | – | – | – | – | – | – | –
